Data reported in PMC8862607 (Molecular microbiology, 2021).
Read-outs that look alike come from different tables or passages of the source.

Experiments:
AntR [1] = target: T1, AntR (Comamonas testosteroni, UniProt A0A096F4H2); format: cell-based, Comamonas testosterone JL40
AntR Y96W derivative = AntR Y96W derivative (Comamonas testosteroni, UniProt A0A096F4H2, Y97W); format: binding, Comamonas testosterone JL40; conditions: read-out: apparent Kd (fluorescence quenching); pH 7.8
AntR [2] = target: T1, AntR; format: binding, Comamonas testosterone JL40; conditions: read-out: apparent Kd (ITC)
AntR C103S = test: Two-plasmid gfp biosensor with AntR C103S mutant in E. coli AW3110; format: cell-based, Comamonas testosterone JL40; conditions: 0.2% arabinose, E. coli AW3110(DE3), Figure 3c
AntR C113S = test: Two-plasmid gfp biosensor with AntR C113S mutant in E. coli AW3110; format: cell-based, Comamonas testosterone JL40; conditions: 0.2% arabinose, E. coli AW3110(DE3), Figure 3d
[3] = system: AntR binding to the ant operator/promoter DNA; format: biochemical, Comamonas testosterone JL40

T1 sequence (A0A096F4H2 1-124): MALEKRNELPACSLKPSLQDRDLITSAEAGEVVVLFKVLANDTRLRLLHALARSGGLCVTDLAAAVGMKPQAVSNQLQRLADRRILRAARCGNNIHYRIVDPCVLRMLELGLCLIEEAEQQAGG
Sequence of AntR Y96W derivative (A0A096F4H2 1-124 Y97W): as the sequence (A0A096F4H2 1-124) above, with Y97W counted along it

Compound	induction of gfp expression in biosensor (AntR [1])	response of AntR repressor to metalloid (introductory summary) (AntR [1])	Kd (AntR Y96W derivative) [µM]	Kd (AntR [2]) [µM]	response of C103S mutant biosensor compared with the wild type (AntR C103S)	response of C113S mutant biosensor compared with the wild type (AntR C113S)	induction of gfp expression in biosensor (AntR [1]; 5 µM metalloid, 0.2% arabinose, E. coli AW3110Δars, wild-type AntR)	effect of metal(loid) on AntR mobility shift of ant promoter probe (EMSA) [3]
O[As](O)O [As(III), arsenite]	little gfp expression	only weakly	~160	440	–	–	–	–
C[As](O)O [MAs(III), methylarsenite]	induced gfp expression	responds	–	–	reduced responses	reduced responses	–	–
antimonite [Sb(III)]	–	responds	–	57	reduced responses	reduced responses	induced gfp expression	mobility shift decreased
